According to US10815222B2, “Compounds for use in the treatment of kinetoplastid infection” (C.N.C.C.S. S.c.a.r.l. COLLEZIONE NAZIONALE DEI COMPOSTI …, priority 2016, dated 2020):

Test system: HUVEC cells
Test: HUVEC cytotoxicity assay (CellTiter Glo, 72 h)
Type: cell-based
Conditions: Homo sapiens, read-out: Cell Proliferation HUVEC IC50
Procedure: (§1) HeLa cells (ATCC® CCL2™) in DMEM (Dulbecco Modified Eagle's Medium) without phenol red, Thermo, 11880, USA+10% FBS+1× PenStrep+1× Gln or HUVEC cells (ATCC® CRL1730™) in EBM-2 (Endothelial Growth Basal Medium, Lonza, CC3156)+EGM-2 SingleQuotsTMSupplements and Growth Factors (Lonza, CC4176)+1× Penicyllin-Streptomycin (PenStrep, ThermoFisher)+1× Glutamine, are plated in a 384 well plate (Thermo, 4334-11, USA) to a density of 2000 cells per well and let recover for four hours at 37° C., 5% CO2 in a humidified atmosphere. After the recovery, compounds are transferred to assay plates as per compound preparation method. Assay plates are then incubated at 37° C., 5% CO2 in a humidified atmosphere for 72 hours. Cell viability is measured by the CellTiter Glo (Promega, G8080, USA) as per manufacturer instruction.

`COc1nc2ccccc2cc1-c1cnc(C2CN(Cc3cnn(C)c3)CCN2C(=O)Cc2c(C)[nH]c3ccc(F)cc23)[nH]1` (stereo not shown) [2-(5-fluoro-2-methyl-1H-indol-3-yl)-1-(2-(5-(2-methoxyquinolin-3-yl)-1H-imidazol-2-yl)-4-((1-methyl-1H-pyrazol-4-yl)methyl)piperazin-1-yl)ethan-1-one] and `COc1nc2ccccc2cc1-c1cnc(C2CN(Cc3nccs3)CCN2C(=O)Cc2c(C)[nH]c3ccc(F)cc23)[nH]1` (stereo not shown) [2-(5-fluoro-2-methyl-1H-indol-3-yl)-1-(2-(5-(2-methoxyquinolin-3-yl)-1H-imidazol-2-yl)-4-(thiazol-2-ylmethyl)piperazin-1-yl)ethan-1-one] are within 1.5-fold of each other in IC50: 6720 nM for the first, 8200 nM for the second.

Test system: Bloodstream form of Trypanosoma brucei, strain Lister 427
Test: Trypanosoma brucei growth inhibition assay (CellTiter-Glo, 24 h)
Type: cell-based
Conditions: Trypanosoma brucei, read-out: T. Brucei GI EC50
Method in brief: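 Bloodstream-form T. brucei Lister 427, 1500 parasites per well in supplemented IMDM with 10% FBS, were exposed to compound (DMSO ≤0.25% final) for 24 h at 37 °C. Viability was measured by CellTiter-Glo luminescence.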

For `CCC(=O)CCCN1CCN(C(=O)Oc2ccccc2)C(c2ncc(-c3ccc4ccccc4c3)[nH]2)C1` (stereo not shown) [phenyl 2-(5-(naphthalen-2-yl)-1H-imidazol-2-yl)-4-(4-oxohexyl)piperazine-1-carboxylate], the EC50 was 1010 to 5000 nM.

Same assay, conditions: Trypanosoma brucei; T. Brucei Growth Inibition Assay, class symbols; read-out: T. Brucei GI EC50

`COc1nc2ccccc2cc1-c1cnc(C2CN(Cc3cnn(C)c3)CCN2C(=O)Cc2c(C)[nH]c3ccc(F)cc23)[nH]1` (stereo not shown) [2-(5-fluoro-2-methyl-1H-indol-3-yl)-1-(2-(5-(2-methoxyquinolin-3-yl)-1H-imidazol-2-yl)-4-((1-methyl-1H-pyrazol-4-yl)methyl)piperazin-1-yl)ethan-1-one] and `COc1ncc(CN2CCN(C(=O)Cc3c(C)[nH]c4ccc(F)cc34)C(c3ncc(-c4cc5ccccc5nc4OC)[nH]3)C2)cn1` (stereo not shown) fall in the same range of EC50: 100 to 500 nM for the first, 100 to 500 nM for the second.

First: COc1nc2ccccc2cc1-c1cnc(C2CN(Cc3nccs3)CCN2C(=O)Cc2c(C)[nH]c3ccc(F)cc23)[nH]1 (stereo not shown) [2-(5-fluoro-2-methyl-1H-indol-3-yl)-1-(2-(5-(2-methoxyquinolin-3-yl)-1H-imidazol-2-yl)-4-(thiazol-2-ylmethyl)piperazin-1-yl)ethan-1-one]
Second: COc1nc2ccccc2cc1-c1cnc(C2CN(Cc3ccccc3)CCN2C(=O)Cc2c(C)[nH]c3ccc(F)cc23)[nH]1 (stereo not shown)
The EC50 of the first is lower: under 100 nM for the first, 100 to 500 nM for the second.

Compared with `COc1ccc2nc(C)n(CC(=O)N3CC[C@H](N(C)Cc4cnccn4)C[C@H]3c3ncc(-c4cc5ccccc5nc4OC)[nH]3)c2c1`, `COc1ccc2nc(C)n(CC(=O)N3CCN(Cc4cnccn4)C[C@H]3c3ncc(-c4cc5ccccc5nc4OC)[nH]3)c2c1` [(S)-2-(6-methoxy-2-methyl-1H-benzo[d]imidazol-1-yl)-1-(2-(5-(2-methoxyquinolin-3-yl)-1H-imidazol-2-yl)-4-(pyrazin-2-ylmethyl)piperazin-1-yl)ethan-1-one] is lower in EC50: 100 to 500 nM for the first, under 100 nM for the second. The second is the more potent here.

First: CCC(=O)CCCN1CCN(C(=O)Cc2c[nH]c3ccccc23)[C@H](c2ncc(-c3ccc4ccccc4c3)[nH]2)C1
Second: CN1CCN(C(=O)Cc2c[nH]c3ncccc23)C(c2ncc(-c3ccc4ccccc4c3)[nH]2)C1 (stereo not shown)
The EC50 of the first is lower: 100 to 500 nM for the first, 1010 to 5000 nM for the second.

`CN1CCN(C(=O)Cc2noc3ccccc23)C(c2ncc(-c3ccc4ccccc4c3)[nH]2)C1` (stereo not shown) and `CN1CCN(C(=O)Cc2ccccc2)C(c2ncc(-c3ccc4ncccc4c3)[nH]2)C1` (stereo not shown) fall in the same range of EC50: 1010 to 5000 nM for the first, 1010 to 5000 nM for the second.

`COc1nc2ccccc2cc1-c1cnc([C@@H]2CN(C3CCC(F)(F)CC3)CCN2C(=O)Cn2c(C(F)(F)F)nc3ccccc32)[nH]1` [(S)-1-(4-(4,4-difluorocyclohexyl)-2-(5-(2-methoxyquinolin-3-yl)-1H-imidazol-2-yl)piperazin-1-yl)-2-(2-(trifluoromethyl)-1H-benzo[d]imidazol-1-yl)ethan-1-one] and `COc1nc2ccccc2cc1-c1cnc([C@@H]2CN(C3COC3)CCN2C(=O)Cn2c(C(F)(F)F)nc3ccccc32)[nH]1` [(S)-1-(2-(5-(2-methoxyquinolin-3-yl)-1H-imidazol-2-yl)-4-(oxetan-3-yl)piperazin-1-yl)-2-(2-(trifluoromethyl)-1H-benzo[d]imidazol-1-yl)ethan-1-one] cannot be ordered by EC50: under 100 nM for the first, under 100 nM for the second.

Compared with `COc1nc2ccccc2cc1-c1cnc(C2CCN(Cc3ccn(C)n3)CCN2C(=O)Cc2c(C)[nH]c3ccc(F)cc23)[nH]1` (stereo not shown) [2-(5-fluoro-2-methyl-1H-indol-3-yl)-1-(7-(5-(2-methoxyquinolin-3-yl)-1H-imidazol-2-yl)-4-((1-methyl-1H-pyrazol-3-yl)methyl)-1,4-diazepan-1-yl)ethan-1-one], `COc1nc2ccccc2cc1-c1cnc(C2CN(C3CCC3)CCN2C(=O)Cc2c(C)[nH]c3ccc(F)cc23)[nH]1` (stereo not shown) is higher in EC50: under 100 nM for the first, 100 to 500 nM for the second. The first is the more potent here.

`COc1ccc2nc(C(F)(F)F)n(CC(=O)N3CC[C@@H](N(C)Cc4ccn(C)n4)C[C@H]3c3ncc(-c4cc5ccccc5nc4OC)[nH]3)c2c1` [2-(6-methoxy-2-(trifluoromethyl)-1H-benzo[d]imidazol-1-yl)-1-((2S,4R)-2-(5-(2-methoxyquinolin-3-yl)-1H-imidazol-2-yl)-4-(methyl((1-methyl-1H-pyrazol-3-yl)methyl)amino)piperidin-1-yl)ethan-1-one] and `COc1ccc2nc(C(F)(F)F)n(CC(=O)N3CCN(Cc4ccn(C)n4)C[C@H]3c3ncc(-c4cc5ccccc5nc4OC)[nH]3)c2c1` [(S)-2-(6-methoxy-2-(trifluoromethyl)-1H-benzo[d]imidazol-1-yl)-1-(2-(5-(2-methoxyquinolin-3-yl)-1H-imidazol-2-yl)-4-((1-methyl-1H-pyrazol-3-yl)methyl)piperazin-1-yl)ethan-1-one] cannot be ordered by EC50: under 100 nM for the first, under 100 nM for the second.

`COc1nc2ccccc2cc1-c1cnc([C@@H]2CN(CC3CCOC3)CCN2C(=O)Cn2c(C(F)(F)F)nc3ccccc32)[nH]1` (stereo partly drawn) [1-((2S)-2-(5-(2-methoxyquinolin-3-yl)-1H-imidazol-2-yl)-4-((tetrahydrofuran-3-yl)methyl)piperazin-1-yl)-2-(2-(trifluoromethyl)-1H-benzo[d]imidazol-1-yl)ethan-1-one] and `COc1nc2ccccc2cc1-c1cnc([C@@H]2CN(CC(F)(F)F)CCN2C(=O)Cn2c(C(F)(F)F)nc3ccccc32)[nH]1` [(S)-1-(2-(5-(2-methoxyquinolin-3-yl)-1H-imidazol-2-yl)-4-(2,2,2-trifluoroethyl)piperazin-1-yl)-2-(2-(trifluoromethyl)-1H-benzo[d]imidazol-1-yl)ethan-1-one] cannot be ordered by EC50: under 100 nM for the first, under 100 nM for the second.

`COc1nc2ccccc2cc1-c1cnc(C2CN(C)CCN2C(=O)Cc2c[nH]c3ncccc23)[nH]1` (stereo not shown) and `CCC(=O)CCCN1CCN(C(=O)Cc2ccccc2)C(c2ncc(-c3cc4ccccc4nc3OC)[nH]2)C1` (stereo not shown) fall in the same range of EC50: 1010 to 5000 nM for the first, 1010 to 5000 nM for the second.

`Cn1cc(CC(=O)N2CCN(Cc3ccccc3)CC2c2ncc(-c3ccc4ccccc4c3)[nH]2)c2ccccc21` (stereo not shown) and `COc1ccc2[nH]c(C)c(CC(=O)N3CCN(CCCC(=O)O)CC3c3ncc(-c4ccc5ccccc5c4)[nH]3)c2c1` (stereo not shown) fall in the same range of EC50: 1010 to 5000 nM for the first, 1010 to 5000 nM for the second.

Compared with `COc1ccc2nc(C(F)(F)F)n(CC(=O)N3CCN(CCc4csc(C)n4)CCC3c3ncc(-c4cc5ccccc5nc4OC)[nH]3)c2c1` (stereo not shown), `COc1ccc2nc(C(F)(F)F)n(CC(=O)N3CC[C@H](N4CCCC4)C[C@H]3c3ncc(-c4cc5ccccc5nc4OC)[nH]3)c2c1` [2-(6-methoxy-2-(trifluoromethyl)-1H-benzo[d]imidazol-1-yl)-1-((2S,4S)-2-(5-(2-methoxyquinolin-3-yl)-1H-imidazol-2-yl)-4-(pyrrolidin-1-yl)piperidin-1-yl)ethan-1-one] is lower in EC50: 100 to 500 nM for the first, under 100 nM for the second.

First: Cc1[nH]c2ccc(F)cc2c1CC(=O)N1CCN(CC2CCOC2)CC1c1ncc(-c2ccc(-n3cccn3)cc2)[nH]1 (stereo not shown)
Second: COc1nc2ccccc2cc1-c1cnc(C2COCCN2C(=O)Cc2c(C)[nH]c3ccc(F)cc23)[nH]1 (stereo not shown)
The EC50 of the first is higher: 1010 to 5000 nM for the first, 510 to 1000 nM for the second.

First: COc1ccc2nc(C)n(CC(=O)N3CCN(CC4CCOC4)C[C@H]3c3ncc(-c4cc5ccccc5nc4OC)[nH]3)c2c1 (stereo partly drawn) [2-(6-methoxy-2-methyl-1H-benzo[d]imidazol-1-yl)-1-((2S)-2-(5-(2-methoxyquinolin-3-yl)-1H-imidazol-2-yl)-4-((tetrahydrofuran-3-yl)methyl)piperazin-1-yl)ethan-1-one]
Second: COc1ccc2nc(C)n(CC(=O)N3CCOCC3c3ncc(-c4cc5ccccc5nc4OC)[nH]3)c2c1 (stereo not shown)
The EC50 of the first is lower: under 100 nM for the first, 1010 to 5000 nM for the second. The first is the more potent here.

`COc1nc2ccccc2cc1-c1cnc(C2CN(CC3CCOC3)CCN2C(=O)CS(=O)(=O)c2ccccc2)[nH]1` (stereo not shown) and `COc1nc2ccccc2cc1-c1cnc(C2CN(CC3CCOC3)CCN2C(=O)c2ccc(C3CCCO3)s2)[nH]1` (stereo not shown) fall in the same range of EC50: 1010 to 5000 nM for the first, 1010 to 5000 nM for the second.

`COc1nc2ccccc2cc1-c1cnc([C@@H]2CN(Cc3cncc(F)c3)CCN2C(=O)Cn2c(C(F)(F)F)nc3ccccc32)[nH]1` [(S)-1-(4-((5-fluoropyridin-3-yl)methyl)-2-(5-(2-methoxyquinolin-3-yl)-1H-imidazol-2-yl)piperazin-1-yl)-2-(2-(trifluoromethyl)-1H-benzo[d]imidazol-1-yl)ethan-1-one] and `COc1nc2ccccc2cc1-c1cnc([C@@H]2CN(Cc3ccccn3)CCN2C(=O)Cn2c(C(F)(F)F)nc3ccccc32)[nH]1` [(S)-1-(2-(5-(2-methoxyquinolin-3-yl)-1H-imidazol-2-yl)-4-(pyridin-2-ylmethyl)piperazin-1-yl)-2-(2-(trifluoromethyl)-1H-benzo[d]imidazol-1-yl)ethan-1-one] cannot be ordered by EC50: under 100 nM for the first, under 100 nM for the second.

Compared with `CCCCCCN1CCN(C(=O)CC2=C(C)NC3C=CC=CC23)C(c2ncc(-c3cc4ccccc4nc3OC)[nH]2)C1` (stereo not shown), `COc1ccc2[nH]c(C)c(CC(=O)N3CCNCC3c3ncc(-c4cc5ccccc5nc4OC)[nH]3)c2c1` (stereo not shown) is higher in EC50: 100 to 500 nM for the first, 510 to 1000 nM for the second.

Compared with `COc1ccc(-c2ccc(C(=O)N3CCN(CC4CCOC4)CC3c3ncc(-c4cc5ccccc5nc4OC)[nH]3)o2)cc1` (stereo not shown), `COc1ccc2nc(C)n(CC(=O)N3CC[C@H](N4CCOCC4)C[C@H]3c3ncc(-c4cc5ccccc5nc4OC)[nH]3)c2c1` [2-(6-methoxy-2-methyl-1H-benzo[d]imidazol-1-yl)-1-((2S,4S)-2-(5-(2-methoxyquinolin-3-yl)-1H-imidazol-2-yl)-4-morpholinopiperidin-1-yl)ethan-1-one] is lower in EC50: 1010 to 5000 nM for the first, 100 to 500 nM for the second.

Same assay, conditions: Trypanosoma brucei; Table 3; read-out: T. brucei GI EC50

Compared with `COc1nc2ccccc2cc1-c1cnc(C2CN(Cc3cnn(C)c3)CCN2C(=O)Cc2c(C)[nH]c3ccc(F)cc23)[nH]1` (stereo not shown) [2-(5-fluoro-2-methyl-1H-indol-3-yl)-1-(2-(5-(2-methoxyquinolin-3-yl)-1H-imidazol-2-yl)-4-((1-methyl-1H-pyrazol-4-yl)methyl)piperazin-1-yl)ethan-1-one], `COc1nc2ccccc2cc1-c1cnc(C2CN(Cc3nccs3)CCN2C(=O)Cc2c(C)[nH]c3ccc(F)cc23)[nH]1` (stereo not shown) [2-(5-fluoro-2-methyl-1H-indol-3-yl)-1-(2-(5-(2-methoxyquinolin-3-yl)-1H-imidazol-2-yl)-4-(thiazol-2-ylmethyl)piperazin-1-yl)ethan-1-one] is 2.8-fold lower in EC50: 172 nM for the first, 60.6 nM for the second.

Test system: HeLa cells
Test: HeLa cytotoxicity assay (CellTiter Glo, 72 h)
Type: cell-based
Conditions: Homo sapiens, read-out: Cell Proliferation Hela IC50
Procedure: as §1

First: COc1nc2ccccc2cc1-c1cnc(C2CN(Cc3cnn(C)c3)CCN2C(=O)Cc2c(C)[nH]c3ccc(F)cc23)[nH]1 (stereo not shown) [2-(5-fluoro-2-methyl-1H-indol-3-yl)-1-(2-(5-(2-methoxyquinolin-3-yl)-1H-imidazol-2-yl)-4-((1-methyl-1H-pyrazol-4-yl)methyl)piperazin-1-yl)ethan-1-one]
Second: COc1nc2ccccc2cc1-c1cnc(C2CN(Cc3nccs3)CCN2C(=O)Cc2c(C)[nH]c3ccc(F)cc23)[nH]1 (stereo not shown) [2-(5-fluoro-2-methyl-1H-indol-3-yl)-1-(2-(5-(2-methoxyquinolin-3-yl)-1H-imidazol-2-yl)-4-(thiazol-2-ylmethyl)piperazin-1-yl)ethan-1-one]
The IC50 of the first is lower: 17400 nM for the first, at least 25000 nM for the second.
